Results: patent US20130190404A1, “CRYSTALS OF CARBOPROST TROMETHAMINE AND THE PREPARATION METHOD AS WELL AS THE USES THEREOF” (SHANGHAI TECHWELL BIOPHARMACEUTICAL CO., LTD., priority 2010, published 2013)

Assay: Purity and stability test: content of impurities by HPLC after sealed storage at 25° C. for 7 days
Format: physicochemical
Settings: for Content of impurities after stored at 25° C. for 7 days: sealed storage; for Content of impurities after stored at 25° C. for 7 days / Initial content of impurities: HPLC; for Initial content of impurities: before storage (baseline of the stability test)
Description: In the following examples, high performance liquid chromatography (HPLC) method (European Pharmacopoeia) used for detecting the purity of the crystal of arboprost tromethamine obtained are listed as follows:
Stationary phase: silica gel, particle size 5-μm
Mobile phase: acetonitrile:aqueous Sodium Dihydrogen Phosphate (pH=2.5)=23:77 (V/V)
Column temperature: 35° C.
Detection wavelength: 200 nm
In the present example, the samples from the comparative-example and examples were test for purity and stability. The method for testing is described as follows:
The samples from comparative-example 1, example 2 and example 4 were obtained and kept at 25° C. for 7 days in sealed storage. And then the content of impurities in each sample was tested.

SMILES | Content of impurities after stored at 25° C. for 7 days [%] | Initial content of impurities [%] | stability after storage (in words) (after stored for a long time, conclusion from the table)
CCCCC[C@](C)(O)/C=C/[C@@H]1[C@@H](C/C=C\CCCC(=O)O)[C@@H](O)C[C@H]1O [Example 2, carboprost tromethamine] | 0.3 | 0.3 | 
CCCCC[C@](C)(O)/C=C/[C@@H]1[C@@H](C/C=C\CCCC(=O)O)[C@@H](O)C[C@H]1O [Example 4, carboprost tromethamine] | 0.2 | 0.2 | 
CCCCC[C@](C)(O)/C=C/[C@@H]1[C@@H](C/C=C\CCCC(=O)O)[C@@H](O)C[C@H]1O [compound 1, carboprost tromethamine] | 4.0 | 0.5 | 
CCCCC[C@](C)(O)/C=C/[C@@H]1[C@@H](C/C=C\CCCC(=O)O)[C@@H](O)C[C@H]1O [crystal of carboprost tromethamine, 2-amino-2-(hydroxymethyl)propan-1,3-diol(5Z)-7-[(1R,2R,3R,5S)-3,5-dihydroxy-2-[(1E,3S)-3-hydroxy-3-methyl-1-octene]cyclopentyl]-5-heptylic acid] |  |  | excellent stability
